Reference: patent US5639729A, “Tripeptides useful in immune and CNS therapy” (Immunobiology Research Institute, Inc., priority 1993, dated 1997)

Experiments:
[1] = test system: insulin-induced ACTH secretion; assay: Effect of peptide on insulin-induced ACTH secretion (insulin challenge); format: in vivo, Sprague-Dawley rats; details: insulin 0.5 IU/kg intraperitoneally, 30 minutes, rats pretreated with saline by oral gavage or s.c. injection; from 16.8±0.8 pg/ml
Experimental: As mentioned above, the administration of insulin can be used as a provocative challenge test to determine how an organism responds to stress and how the response can be manipulated. It was shown in FIG. 1 that, in rats, administration of insulin causes an increase in plasma concentrations of ACTH.
Adult male Sprague-Dawley rats were used in these experiments. After an overnight fast, the peptide or saline was administered by oral gavage or by subcutaneous injection to the experimental subjects. Doses of the peptide ranged from 0.1 to 10 mg/kg by the oral route and 0.03 to 3.0 mg/kg by the subcutaneous route. […] all animals were treated with insulin (0.5 IU/kg) and were sacrificed by decapitation 30 minutes later. As above, trunk blood was collected in polypropylene tubes containing 400 μl of 10% EDTA at 4° C. Plasma was separated by centrifugation and stored at -80° C. until being used for ACTH determinations, ACTH concentrations were determined by RIA as described by Nicholson et al, cited above, using antiserum [IgG Corporation] and ^125 I-labelled ACTH [ICN Corporation].

ACTH secretion = assay: Actions of insulin on ACTH secretion; format: in vivo, Sprague-Dawley rats; details: 30 minutes, fasted male rats
Experimental: To determine whether a drug can modify stress responses, the stress response itself must be characterized. To accomplish this goal, adult male Sprague-Dawley rats [Charles River, Kingston, N.Y.] were treated with increasing doses of insulin [Humulin, Eli Lilly Co.] ranging from 0.05 to 5 IU/kg or saline intraperitoneally after an overnight fast. Thirty minutes after administering insulin, the animals were sacrificed by decapitation and trunk blood was collected into polypropylene tubes containing 400 μl of 10% EDTA at 4° C. The plasma was separated by centrifugation and stored at -80° C. until being used for ACTH determinations. Plasma concentrations of ACTH were determined by radioimmunoassay using antiserum [IgG Corporation, Nashville, Tenn.] and ^125 I-labelled ACTH [ICN Corporation, Costa Mesa, Calif.] as described by Nicholson et al, Clin. Chem., 30:259-265 (1984).

insulin: insulin [Humulin, Eli Lilly Co.], used as provocative challenge to raise plasma ACTH in rats
plasma ACTH concentrations [1]: approximately 200 pg/ml
plasma ACTH levels (ACTH secretion; insulin 0.05 IU/kg intraperitoneally): not elevated
plasma ACTH concentrations (ACTH secretion; insulin 0.1 IU/kg intraperitoneally): significantly greater than in vehicle treated controls
ACTH responses (ACTH secretion; insulin doses higher than 0.1 IU/kg up to 5 IU/kg intraperitoneally): commensuratively greater ACTH responses
